Source: patent publication US10561761B2, “Polymer metal-organic framework composites” (Northwestern University, priority 2014, dated 2020)
Like-named read-outs stand apart in the source and are kept apart here.

Key:
[1] = ABTS free radical scavenging assay; assay type: biochemical; settings: within 48 hrs, 37° C.
Description: The ability of PCMOF to scavenge the free radical cation, 2,2′-azino-bis(3-ethylbenzthiazoline-6-sulfonic acid) (ABTS) was assessed. […] A stock solution of 7 mM ABTS and 2.45 mM sodium persulfate in MQ water was prepared and left overnight in the dark at room temperature, after which the solution was sequentially filtered with 0.45 μm filter. […] At each time point, ABTS solution was sampled, diluted with MQ water 1:8 and the absorbance measured at 734 nm. All measurements were performed in triplicate. The antiradical activity was measured as % inhibition of free radicals by measuring the decrease in absorbance compared to PBS solutions at different time points.

[2] = tested on: HEKa cells; test: Scratch assay (cell migration), HEKa; assay type: cell-based, human; settings: Cu 1×10^−3 mmol/L
Description: (§1) HEKa and HDF cells were seeded in 24-well plates (2×10^4 cells/well) and allowed to form a confluent monolayer. After starvation with FBS-free medium for 24 h, the cell monolayer was scratched in a straightline using 200 μL pipette tip to mimic an incisional wound. […] At desired time intervals, cells were photographed and cell migration rate was calculated using the formula shown as below: […]

[3] = tested on: HDF cells; test: Scratch assay (cell migration), HDF; assay type: cell-based, human; settings: 54 hrs, Cu 1×10^−3 mmol/L
Description: as §1

[4] = tested on: HDF cells; test: MTT cytotoxicity assay, HDF; settings: 48 h
Description: (§2) HEKa and HDF cells seeded in 96-well plates (5×10^3 cells/well) were incubated with a series of concentrations of PPCN, CuSO4, PCuSO4, CMOF or PCMOF for 48 h. Then, MTT solution was added to each well to a concentration of 0.5 mg/mL and incubated for an additional 4 h. After that, the medium was removed and 100 μL of dimethyl sulfoxide was added to dissolve crystals formed by living cells. Absorbance at 570 nm was measured using a microplate reader. Cell viability was expressed as a percentage of the absorbance to that of the control experiment without treatment.

[5] = tested on: HEKa cells; test: MTT cytotoxicity assay, HEKa; settings: 48 h
Description: as §2

[6] = tested on: HDF cells; test: Apoptosis assay (Annexin V/PI flow cytometry), HDF; settings: Cu 0.5 mmol/L, 24 h
Description: (§3) HEKa and HDF cells seeded in 12-well plates (4×10^4 cells/well) were incubated with PPCN, CuSO4, PCuSO4, CMOF or PCMOF (Cu: 0.5 mmol/L) for 24 h. Cells were harvested, washed twice with ice-cold PBS, stained with Alexa Fluor 488 conjugated Annexin V and PI for 15 min at room temperature in dark, and then analyzed by flow cytometry.

[7] = tested on: HEKa cells; test: Apoptosis assay (Annexin V/PI flow cytometry), HEKa; settings: Cu 0.5 mmol/L, 24 h
Description: as §3

[8] = tested on: HEKa cells
Description: as §2

[9] = tested on: HDF cells
Description: as §2

**Q.** With `O=S(=O)([O-])[O-].[Cu+2]` [CuSO4, Copper sulfate] as the compound, how does the ABTS radicals scavenged [1] read?
**A.** The ABTS radicals scavenged was “didn't present a free radical scavenging effect”.

**Q.** What about the “effect on wound closure versus blank” value ([2]; 8 h) of the same compound?
**A.** The value was “significant increase”.

**Q.** And the wound closure rate ([2]; 30 hrs)?
**A.** Its wound closure rate is 56.73%.

**Q.** What about the wound closure rate [3] of the same compound?
**A.** Its wound closure rate is 34.15%.

**Q.** What about the “cytotoxicity (MTT)” value [4] of the same compound?
**A.** The value was “increased with increasing concentrations”.

**Q.** And the “cytotoxicity (MTT)” value [5]?
**A.** The value was “increased with increasing concentrations”.

**Q.** And the cell apoptosis [6]?
**A.** Its cell apoptosis is 97.84%.

**Q.** And the cell apoptosis [7]?
**A.** Its cell apoptosis is 78.79%.

**Q.** For “poly(polyethyleneglycol citrate-co-N-isopropylacrylamide) [PPCN]”, which “cytotoxicity (MTT)” value [8] is on record?
**A.** Its value is “not toxic”.

**Q.** What about the “cytotoxicity (MTT)” value [9] of the same compound?
**A.** The value was “not toxic”.
